According to patent US20260274807A1 (University of Health Sciences and Pharmacy in St. Louis, priority 2023, published 2026):

How the values were obtained:
[1] = target: T1, ERRγ (Homo sapiens, UniProt P62508); experiment: ERRE luciferase reporter assay in HEK293 cells transfected with pcDNA3.1 ERRγ; type: cell-based; parameters: key to EC50 (ERRγ) μM: * <1 μM; ** 1-5 μM; *** >5 μM; i.a. (inactive); conditions: HEK293 cells transfected with ERRE reporter construct and pcDNA3.1 ERRγ; compound for 24 hours; luciferase activity
T1 construct: expressed in transfected cells; host or cells: HEK293
T1 sequence (P62508 1-458): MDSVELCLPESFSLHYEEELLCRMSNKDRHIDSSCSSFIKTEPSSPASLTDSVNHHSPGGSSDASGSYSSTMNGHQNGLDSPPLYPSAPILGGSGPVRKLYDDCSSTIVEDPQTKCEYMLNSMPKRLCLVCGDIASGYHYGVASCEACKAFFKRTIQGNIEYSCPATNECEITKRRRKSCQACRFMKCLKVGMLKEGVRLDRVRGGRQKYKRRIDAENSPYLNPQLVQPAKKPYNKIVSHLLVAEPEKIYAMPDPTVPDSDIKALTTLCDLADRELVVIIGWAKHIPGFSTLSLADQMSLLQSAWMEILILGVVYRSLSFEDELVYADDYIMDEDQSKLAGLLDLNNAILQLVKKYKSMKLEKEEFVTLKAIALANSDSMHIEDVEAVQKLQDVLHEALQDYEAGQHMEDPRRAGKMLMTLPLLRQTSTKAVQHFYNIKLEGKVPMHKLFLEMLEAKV
Protocol: (§1) HEK293 cells were maintained in Dulbecco's modified Eagles medium (DMEM) supplemented with 10% fetal bovine serum at 37° C. under […]. […] Cells were transfected with ERRE reporter construct and pcDNA3.1 ERRα or ERRγ. Twenty-four-hours post-transfection, the cells were treated with vehicle or compound (various concentrations) for 24 hours (4 wells per dose). Luciferase activity was measured using the One-Glo Tox luciferase reporter assay system (Promega) and EC50s were calculated using GraphPad Prism software.

[2] = target: T2, ERRα (Homo sapiens, UniProt P11474); experiment: ERRE luciferase reporter assay in HEK293 cells transfected with pcDNA3.1 ERRα; type: cell-based; parameters: key to EC50 (ERRα) μM: * <1 μM; ** 1-5 μM; *** >5 μM; i.a. (inactive); conditions: HEK293 cells transfected with ERRE reporter construct and pcDNA3.1 ERRα; compound for 24 hours; luciferase activity
T2 construct: expressed in transfected cells; host or cells: HEK293
T2 sequence (P11474 1-423): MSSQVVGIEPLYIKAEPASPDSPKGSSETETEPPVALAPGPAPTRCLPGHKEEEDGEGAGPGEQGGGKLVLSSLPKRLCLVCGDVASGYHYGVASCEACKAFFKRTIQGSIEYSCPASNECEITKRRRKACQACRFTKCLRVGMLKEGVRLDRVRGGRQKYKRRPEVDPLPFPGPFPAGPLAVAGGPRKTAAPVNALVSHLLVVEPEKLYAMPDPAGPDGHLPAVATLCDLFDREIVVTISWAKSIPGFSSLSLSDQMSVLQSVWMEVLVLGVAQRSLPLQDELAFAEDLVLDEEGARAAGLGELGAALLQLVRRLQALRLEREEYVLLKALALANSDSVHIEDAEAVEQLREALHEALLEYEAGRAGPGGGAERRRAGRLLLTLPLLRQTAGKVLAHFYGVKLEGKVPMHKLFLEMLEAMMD
Protocol: as §1

| EC50 [1] [nM] | EC50 [2] [nM] | EC50 (ERRγ) μM [1] | EC50 (ERRα) μM [2] | Compound |
| --- | --- | --- | --- | --- |
| > 5000 | > 5000 | – | – | O=[N+]([O-])c1ccc(Br)cc1-c1nnc(-c2ccccc2)o1 [Entry 84, 2-(5-bromo-2-nitrophenyl)-5-phenyl-1,3,4-oxadiazole] |
| < 1000 | < 1000 | – | – | COc1ccc(-c2nnc(-c3ccccc3)o2)c([N+](=O)[O-])c1 [Entry 86, 2-(4-methoxy-2-nitrophenyl)-5-phenyl-1,3,4-oxadiazole] |
| > 5000 | 1000 to 5000 | – | – | COc1ccc([N+](=O)[O-])c(-c2nnc(-c3ccccc3)o2)c1 [Entry 87, 2-(5-methoxy-2-nitrophenyl)-5-phenyl-1,3,4-oxadiazole] |
| < 1000 | < 1000 | – | – | COc1cccc(-c2nnc(-c3ccccc3)o2)c1[N+](=O)[O-] [Entry 88, 2-(3-methoxy-2-nitrophenyl)-5-phenyl-1,3,4-oxadiazole] |
| < 1000 | < 1000 | – | – | Cc1cccc(-c2nnc(-c3ccccc3)o2)c1[N+](=O)[O-] [Entry 89, 2-(3-methyl-2-nitrophenyl)-5-phenyl-1,3,4-oxadiazole] |
| 1000 to 5000 | 1000 to 5000 | – | – | O=[N+]([O-])c1c(Cl)cccc1-c1nnc(-c2ccccc2)o1 [Entry 90, 2-(3-chloro-2-nitrophenyl)-5-phenyl-1,3,4-oxadiazole] |
| > 5000 | > 5000 | – | – | O=[N+]([O-])c1ccccc1-c1nnc(-c2ccc(Cl)cc2)o1 [Entry 92, 2-(4-chlorophenyl)-5-(2-nitrophenyl)-1,3,4-oxadiazole] |
| < 1000 | < 1000 | – | – | COc1ccc(-c2nnc(-c3ccccc3)s2)cc1 [Entry 1001, 2-(4-methoxyphenyl)-5-phenyl-1,3,4-thiadiazole] |
| < 1000 | < 1000 | – | – | Cc1ccc(-c2nnc(-c3ccccc3)s2)cc1 [Entry 1002, 2-phenyl-5-(p-tolyl)-1,3,4-thiadiazole] |
| < 1000 | < 1000 | – | – | Cc1ccc(-c2nnc(-c3ccccc3Cl)s2)cc1 [Entry 1003, 2-(2-chlorophenyl)-5-(p-tolyl)-1,3,4-thiadiazole] |
| < 1000 | < 1000 | – | – | c1ccc(-c2nnc(-c3ccccc3)s2)cc1 [Entry 1004, 2,5-diphenyl-1,3,4-thiadiazole] |
| < 1000 | < 1000 | – | – | Cc1ccc(-c2nnc(-c3ccccc3[N+](=O)[O-])s2)cc1 [Entry 1005, 2-(2-nitrophenyl)-5-(p-tolyl)-1,3,4-thiadiazole] |
| < 1000 | < 1000 | – | – | c1ccc(-c2nnc(C3CCCCC3)s2)cc1 [Entry 1006, 2-cyclohexyl-5-phenyl-1,3,4-thiadiazole] |
| < 1000 | < 1000 | – | – | c1ccc(-c2nnc(C34CC5CC(CC(C5)C3)C4)s2)cc1 [Entry 1007, 2-((1S,3S)-adamantan-1-yl)-5-phenyl-1,3,4-thiadiazole] |
| < 1000 | < 1000 | – | – | FC(F)(F)c1cccc(-c2nnc(-c3ccccn3)s2)c1 [Entry 1008, 2-(pyridin-2-yl)-5-(3-(trifluoromethyl)phenyl)-1,3,4-thiadiazole] |
| < 1000 | < 1000 | – | – | FC(F)(F)c1ccc(-c2nnc(-c3ccccn3)s2)cc1 [Entry 1009, 2-(pyridin-2-yl)-5-(4-(trifluoromethyl)phenyl)-1,3,4-thiadiazole] |
| < 1000 | < 1000 | – | – | c1ccc(-c2nnc(-c3cnccn3)s2)cc1 [Entry 1010, 2-phenyl-5-(pyrazin-2-yl)-1,3,4-thiadiazole] |
| < 1000 | < 1000 | – | – | COc1cccc(-c2nnc(-c3ccccc3)s2)c1 [Entry 1012, 2-(3-methoxyphenyl)-5-phenyl-1,3,4-thiadiazole] |
| < 1000 | < 1000 | – | – | COc1ccccc1-c1nnc(-c2ccccc2)s1 [Entry 1013, 2-(2-methoxyphenyl)-5-phenyl-1,3,4-thiadiazole] |
| 1000 to 5000 | 1000 to 5000 | – | – | FC(F)(F)c1cccc(-c2nnc(-c3ccccc3)s2)c1 [Entry 1014, 2-phenyl-5-(3-(trifluoromethyl)phenyl)-1,3,4-thiadiazole] |

| EC50 [1] [nM] | EC50 [2] [nM] | EC50 (ERRγ) μM [1] | EC50 (ERRα) μM [2] | Compound |
| --- | --- | --- | --- | --- |
| < 1000 | < 1000 | – | – | Cc1ccccc1-c1nnc(-c2ccccc2)s1 [Entry 1015, 2-phenyl-5-(o-tolyl)-1,3,4-thiadiazole] |
| < 1000 | < 1000 | – | – | CC(C)(C)c1ccc(-c2nnc(-c3ccccc3[N+](=O)[O-])s2)cc1 [Entry 1016, 2-(4-(tert-butyl)phenyl)-5-(2-nitrophenyl)-1,3,4-thiadiazole] |
| < 1000 | < 1000 | – | – | Clc1ccc(-c2nnc(-c3ccccc3)s2)cc1 [Entry 1017, 2-(4-chlorophenyl)-5-phenyl-1,3,4-thiadiazole] |
| 1000 to 5000 | < 1000 | – | – | COc1ccc(-c2nnc(-c3ccc(Br)cc3)s2)cc1 [Entry 1018, 2-(4-bromophenyl)-5-(4-methoxyphenyl)-1,3,4-thiadiazole] |
| < 1000 | < 1000 | – | – | COc1ccc(-c2nnc(-c3ccco3)s2)cc1 [Entry 1019, 2-(furan-2-yl)-5-(4-methoxyphenyl)-1,3,4-thiadiazole] |
| < 1000 | < 1000 | – | – | COc1ccc(-c2nnc(-c3ccc(C)o3)s2)cc1 [Entry 1020, 2-(4-methoxyphenyl)-5-(5-methylfuran-2-yl)-1,3,4-thiadiazole] |
| < 1000 | < 1000 | – | – | COc1ccc(-c2nnc(-c3ccccc3[N+](=O)[O-])s2)cc1 [Entry 1021, 2-(4-methoxyphenyl)-5-(2-nitrophenyl)-1,3,4-thiadiazole] |
| < 1000 | < 1000 | – | – | COc1ccc(-c2nnc(-c3cccs3)s2)cc1 [Entry 1022, 2-(4-methoxyphenyl)-5-(thiophen-2-yl)-1,3,4-thiadiazole] |
| < 1000 | < 1000 | – | – | COc1cccc(-c2nnc(-c3ccccc3)s2)c1[N+](=O)[O-] [Entry 1023, 2-(3-methoxy-2-nitrophenyl)-5-phenyl-1,3,4-thiadiazole] |
| < 1000 | < 1000 | – | – | COc1ccc(-c2nnc(-c3ccccc3Cl)s2)cc1 [Entry 1024, 2-(2-chlorophenyl)-5-(4-methoxyphenyl)-1,3,4-thiadiazole] |
| < 1000 | < 1000 | – | – | Cc1ccc(-c2nnc(-c3ccnc4ccccc34)s2)cc1 [Entry 1025, 2-(quinolin-4-yl)-5-(p-tolyl)-1,3,4-thiadiazole] |
| > 5000 | > 5000 | – | – | COc1ccc(-c2nnc(-c3ccccc3)s2)c(N)c1 [Entry 1026, 5-methoxy-2-(5-phenyl-1,3,4-thiadiazol-2-yl)aniline] |
| < 1000 | < 1000 | – | – | CC(C)(C)c1ccc(-c2nnc(-c3ccccc3N)s2)cc1 [Entry 1027, 2-(5-(4-(tert-butyl)phenyl)-1,3,4-thiadiazol-2-yl)aniline] |
| 1000 to 5000 | 1000 to 5000 | – | – | O=[N+]([O-])c1ccccc1Cc1nnc(-c2ccc(C(F)(F)F)cc2)s1 [Entry 1028, 2-(2-nitrobenzyl)-5-(4-(trifluoromethyl)phenyl)-1,3,4-thiadiazole] |
| < 1000 | 1000 to 5000 | – | – | Cc1ccc(-c2nnc(-c3ccc(C)o3)s2)cc1 [Entry 1029, 2-(5-methylfuran-2-yl)-5-(p-tolyl)-1,3,4-thiadiazole] |
| < 1000 | < 1000 | – | – | Nc1ccc(-c2nnc(-c3ccccc3)s2)cc1 [Entry 1030, 4-(5-phenyl-1,3,4-thiadiazol-2-yl)aniline] |
| < 1000 | < 1000 | – | – | Cc1ccc(-c2nnc(-c3cccs3)s2)cc1 [Entry 1031, 2-(thiophen-2-yl)-5-(p-tolyl)-1,3,4-thiadiazole] |
| – | – | i.a. | i.a. | O=C(Nc1nnc(-c2ccccc2)s1)c1ccccc1 [Entry 1032, N-(5-phenyl-1,3,4-thiadiazol-2-yl)benzamide] |
| – | – | i.a. | i.a. | COc1ccc(-c2nnc(NC(=O)c3ccccc3)s2)cc1 [Entry 1033, N-(5-(4-methoxyphenyl)-1,3,4-thiadiazol-2-yl)benzamide] |
| – | – | i.a. | i.a. | Cc1ccc(C(=O)Nc2nnc(-c3ccccc3Cl)s2)cc1 [Entry 1034, N-(5-(2-chlorophenyl)-1,3,4-thiadiazol-2-yl)-4-methylbenzamide] |
